Patent US11896592B2, “Certain triazolopyridines and triazolopyrazines, compositions thereof and methods of use therefor” (Hutchison Medipharma Limited, priority 2009, dated 2024)

Each molecule was assayed against T1, Recombinant human Met (c-Met) (Homo sapiens, UniProt P08581) (assay: Inhibition of c-Met kinase activity using Transcreener FP assay). Details: Poly E4Y substrate, 28° C. 45 min, read-out: IC50, inhibition of c-Met kinase activity.
T1 construct: purchased Invitrogen PV3143
T1 sequence (P08581 956-1390 limits assumed): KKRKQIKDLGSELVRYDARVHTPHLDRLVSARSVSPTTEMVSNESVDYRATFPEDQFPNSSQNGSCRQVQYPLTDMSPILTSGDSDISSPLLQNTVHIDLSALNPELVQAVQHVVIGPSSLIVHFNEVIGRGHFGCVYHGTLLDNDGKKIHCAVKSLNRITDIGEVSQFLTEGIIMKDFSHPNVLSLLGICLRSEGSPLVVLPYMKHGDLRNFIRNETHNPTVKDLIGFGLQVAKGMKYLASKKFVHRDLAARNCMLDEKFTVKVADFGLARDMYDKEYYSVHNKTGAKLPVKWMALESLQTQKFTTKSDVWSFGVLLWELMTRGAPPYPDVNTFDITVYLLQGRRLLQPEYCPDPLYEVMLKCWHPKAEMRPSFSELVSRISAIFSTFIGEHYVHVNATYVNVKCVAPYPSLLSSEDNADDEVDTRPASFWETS
Format: biochemical
Description: Compound dilution: dilute test articles to 5 folds of the testing concentration using 20% DMSO.
The mixture is kept on ice until use;
Prepare ATP standard curve stock as following:
3. Enzymatic reaction: in 96-well reaction plate
Add 5 μL of test article or 5 μL of 20% DMSO or 5 μL of 500 mM EDTA;
Add 10 μL of Enzyme/Substrate stock;
Add 10 μL of ATP Diluent to begin the enzyme reaction and mix on plate shaker;
Add 5 μL of 20% DMSO, 10 μL of assay buffer and 10 μL of ATP standard curve stock into standard curve wells;
Gently shake at 28° C. for 45 min.
4. Stop reaction and detect ADP
Prepare Detection Mix: According to the procedures described in the Assay kit, Alexa633 tracer, ADP antibody and stop & detect buffer were added into H2O and mixed thoroughly. Prepare Tracer Only control: According to the procedures described in the Assay kit, ADP Alexa633 tracer and stop & detect buffer were added to H2O and mixed throughly.
Prepare No Tracer control: According to the procedures described in the Assay kit, the stop & detect buffer was diluted with H2O;
Add 25 μL of detection mix, Tracer Only control and No Tracer control into corresponding wells, respectively;
The reaction plate was gently shaken at 28° C. for 1 h;
Florescence polarization (FP) was measured on TECAN F500. Excitation wavelength: 610 nm, Emission wavelength: 670 nm.
Compound well [ADP] represents the ADP concentration of the compound well. Positive control well [ADP] represents the ADP concentration of the 20% DMSO well. Conversion of mP value to ADP concentration is based on the formula which is determined by standard curve.
IC50: calculated using XL-Fit 2.0 software.
In the case of `FC(F)(F)Cn1cc(-c2ccc3nnn(Cc4ccc5ncnn5c4)c3n2)cn1` [Compound 121], the IC50 is reported as 100 to 1000 nM.
In the case of `O[C@@H]1CCC[C@H]1Nc1ccnc(Nc2ccc3nnn(Cc4ccc5ncccc5c4)c3n2)c1` [Compound 219], the IC50 is reported as 100 to 1000 nM.
`COc1ccc(-c2cnc3nnn(Cc4ccc5ncnn5c4)c3n2)cc1` [Compound 59] was tested, and the IC50 was 1 to 100 nM.
With `Clc1cccc(Nc2ccc3nnn(Cc4cc5cnccc5s4)c3n2)c1` [Compound 170] the IC50 was 100 to 1000 nM.
Work on `OCCn1cc(-c2cnc3nnn(Cc4ccc5ncnn5c4)c3n2)cn1` [Compound 54] yielded an IC50 of 1 to 100 nM.
`OC1COCC1Nc1ccnc(Nc2cnc3nnn(Cc4ccc5ncccc5c4)c3n2)c1` (stereo not drawn) [Compound 226] showed an IC50 of 1 to 100 nM.
With `OCCn1cc(-c2cnc3nnn(Cc4ccc5ncc(CO)n5c4)c3n2)cn1` [Compound 306] the IC50 was 1 to 100 nM.
Work on `Cc1cnc2ccc(Cn3nnc4ncc(-c5cnn(C)c5)nc43)cn12` [Compound 298] yielded an IC50 of 1 to 100 nM.
`c1nc2ccc(Cn3nnc4ncc(-c5cnn(C6CNC6)c5)nc43)cn2n1` [Compound 286] gave an IC50 of 100 to 1000 nM.
Work on `N#CCn1cc(-c2ccc3nnn(Cc4ccc5ncccc5c4)c3n2)cn1` [Compound 117] yielded an IC50 of 1 to 100 nM.
`Cn1cc(-c2cnc3nnn(Cc4ccc5ncc(C=O)n5c4)c3n2)cn1` [Compound 307, 6-((6-(1-Methyl-1H-pyrazol-4-yl)-1H-[1,2,3]triazolo[4,5-b]pyrazin-1-yl)methyl)-imidazo[1,2-a]pyridine-3-carbaldehyde] showed an IC50 of 1 to 100 nM.
`Cn1cc(-c2ccc3nnn(Cc4ccc5ncnn5c4)c3n2)cn1` [Compound 120] was tested, and the IC50 was 100 to 1000 nM.
Work on `c1cn2cc(Cn3nnc4ncc(-c5cnn(C6CCNCC6)c5)nc43)ccc2n1` [Compound 46] yielded an IC50 of 1 to 100 nM.
`c1cnc2[nH]cc(Cn3nnc4ccc(-c5cnn(C6CCNCC6)c5)nc43)c2c1` [Compound 116] showed an IC50 of 100 to 1000 nM.
Work on `Cc1ccc(Nc2cnc3nnn(Cc4ccc5ncccc5c4)c3n2)cn1` [Compound 155] yielded an IC50 of 1 to 100 nM.
`Cn1cnc(-c2ccc3nnn(Cc4ccc5ncccc5c4)c3n2)c1` [Compound 108] was tested, and the IC50 was 100 to 1000 nM.
Work on `COCCOc1ccc(-c2ccc3nnn(Cc4ccc5ncccc5c4)c3n2)cn1` [Compound 99] yielded an IC50 of 100 to 1000 nM.
With `N#Cc1ccc(Nc2cnc3nnn(Cc4ccc5ncccc5c4)c3n2)nc1` [Compound 225] the IC50 was 1 to 100 nM.
Work on `CS(=O)(=O)Nc1ccc(-c2ccc3nnn(Cc4ccc5ncccc5c4)c3n2)cn1` [Compound 90] yielded an IC50 of 1 to 100 nM.
With `O=C(O)Cn1cc(-c2ccc3nnn(Cc4ccc5ncccc5c4)c3n2)cn1` [Compound 66] the IC50 was 100 to 1000 nM.
`c1nn(C2CNC2)cc1-c1cnc2nnn(Cc3cc4[nH]ncc4s3)c2n1` [Compound 283] showed an IC50 of 1 to 100 nM.
With `COCCn1cc(-c2ccc3nnn(Cc4c[nH]c5ncccc45)c3n2)cn1` [Compound 111] the IC50 was 1 to 100 nM.
For `COCCNc1ccncc1Nc1cnc2nnn(Cc3ccc4ncccc4c3)c2n1` [Compound 209], the IC50 was 100 to 1000 nM.
For `COc1ccc(Nc2ccc3nnn(Cc4ccc5ncccc5c4)c3n2)nc1` [Compound 234], the IC50 was 100 to 1000 nM.
`CCOC(=O)Cn1cc(-c2ccc3nnn(Cc4ccc5ncccc5c4)c3n2)cn1` [Compound 65] showed an IC50 of 1 to 100 nM.
In the case of `c1cnc2ccc(Cn3nnc4ncc(Nc5cncc(N6CCOCC6)c5)nc43)cc2c1` [Compound 193], the IC50 is reported as 1 to 100 nM.
Molecule `Clc1ccc(Nc2cnc3nnn(Cc4ccc5ncccc5c4)c3n2)nc1` [Compound 164] has an IC50 of 1 to 100 nM.
`CC(c1ccc2nccn2c1)n1nnc2ncc(-c3cnn(CC(F)(F)F)c3)nc21` (stereo not drawn) [Compound 277] showed an IC50 of 1 to 100 nM.
`CC(c1ccc2ncccc2c1)n1nnc2ccc(-c3cnn(CCO)c3)nc21` (racemic) [Compound 332] gave an IC50 of 1 to 100 nM.
`CNc1ccc(Nc2cnc3nnn(Cc4ccc5ncccc5c4)c3n2)cn1` [Compound 187] showed an IC50 of 100 to 1000 nM.
Molecule `CCn1cc(-c2cnc3nnn(Cc4n[nH]c5ncccc45)c3n2)cn1` [Compound 49] has an IC50 of 1 to 100 nM.
Molecule `CC(C)n1cc(-c2ccc3nnn(Cc4ccc5ncccc5c4)c3n2)cn1` [Compound 144] has an IC50 of 1 to 100 nM.
Work on `CN1CC[C@H](Nc2cc(Nc3cnc4nnn(Cc5ccc6ncccc6c5)c4n3)ccn2)C1` [Compound 229] yielded an IC50 of 1 to 100 nM.
In the case of `Cc1cnc(Nc2cnc3nnn(Cc4ccc5ncccc5c4)c3n2)s1` [Compound 176], the IC50 is reported as 1 to 100 nM.
`OCCn1cc(-c2ccc3nnn(Cc4ccc5ncccc5c4)c3n2)cn1` [Compound 61] was tested, and the IC50 was 1 to 100 nM.
In the case of `CC(c1cc2cnccc2s1)n1nnc2ncc(-c3cnn(CCO)c3)nc21` (stereo not drawn) [Compound 21], the IC50 is reported as 1 to 100 nM.
`OCc1ccc(-c2ccc3nnn(Cc4ccc5ncccc5c4)c3n2)s1` [Compound 104] was tested, and the IC50 was 1 to 100 nM.
Molecule `c1cnc2ccc(Cn3nnc4ncc(Nc5ccncc5)nc43)cc2c1` [Compound 169] has an IC50 of 1 to 100 nM.
`c1cnc2ccc(Cn3nnc4ccc(OC5CCOCC5)nc43)cc2c1` [Compound 249] gave an IC50 of 100 to 1000 nM.
`N#CCn1cc(-c2cnc3nnn(Cc4ccc5nccn5c4)c3n2)cn1` [Compound 35] showed an IC50 of 1 to 100 nM.
In the case of `Cc1csc(Nc2cnc3nnn(Cc4ccc5ncccc5c4)c3n2)n1` [Compound 172], the IC50 is reported as 1 to 100 nM.
In the case of `CCn1cc(-c2cnc3nnn(Cc4ccc5nccn5c4)c3n2)cn1` [Compound 8], the IC50 is reported as 1 to 100 nM.
Work on `CN(c1ccncc1)c1cnc2nnn(Cc3ccc4ncccc4c3)c2n1` [Compound 177] yielded an IC50 of 1 to 100 nM.
Molecule `CC(=O)OCCn1cc(-c2ccc3nnn(Cc4ccc5ncccc5c4)c3n2)cn1` [Compound 98] has an IC50 of 100 to 1000 nM.
In the case of `CS(=O)(=O)Nc1ccc(-c2ccc3nnn(Cc4ccc5ncccc5c4)c3n2)cc1` [Compound 84], the IC50 is reported as 1 to 100 nM.
Molecule `Cn1cc(-c2cnc3nnn(Cc4ccc5ncc(Br)n5c4)c3n2)cn1` [Compound 278, 1-((3-Bromoimidazo[1,2-a]pyridin-6-yl)methyl)-6-(1-methyl-1H-pyrazol-4-yl)-1H-[1,2,3]triazolo[4,5-b]pyrazine] has an IC50 of 1 to 100 nM.
`FC(F)(F)Cn1cc(-c2cnc3nnn(Cc4ccc5nccn5n4)c3n2)cn1` [Compound 287] was tested, and the IC50 was 1 to 100 nM.
In the case of `N#CCn1cc(-c2cnc3nnn(Cc4ccn5nccc5c4)c3n2)cn1` [Compound 301], the IC50 is reported as 1 to 100 nM.
`OCCn1cc(-c2ccc3nnn(Cc4ccc5nccn5c4)c3n2)cn1` [Compound 134] gave an IC50 of 1 to 100 nM.
In the case of `CC(C)n1cc(-c2cnc3nnn(Cc4cc5[nH]ncc5s4)c3n2)cn1` [Compound 26], the IC50 is reported as 1 to 100 nM.
`COCc1cnc2ccc(Cn3nnc4ncc(-c5cnn(C)c5)nc43)cn12` [Compound 308] gave an IC50 of 1 to 100 nM.
`CN1CCC(n2cc(-c3ccc4nnn(Cc5ccc6ncccc6c5)c4n3)cn2)CC1` [Compound 101] showed an IC50 of 100 to 1000 nM.
`Cn1cc(-c2ccc3nnn(Cc4cc5cccnc5cc4F)c3n2)cn1` [Compound 127] was tested, and the IC50 was 1 to 100 nM.
`CC(C)n1cc(-c2ccc3nnn(Cc4ccc5nccn5c4)c3n2)cn1` [Compound 136] was tested, and the IC50 was 1 to 100 nM.
For `CNCCCn1cc(-c2ccc3nnn(Cc4ccc5ncccc5c4)c3n2)cn1` [Compound 92], the IC50 was 100 to 1000 nM.
`c1nn(C2COC2)cc1-c1cnc2nnn(Cc3cc4[nH]ncc4s3)c2n1` [Compound 296] gave an IC50 of 100 to 1000 nM.
With `OCCn1cc(-c2cnc3nnn(Cc4ccn5ncnc5c4)c3n2)cn1` [Compound 317] the IC50 was 100 to 1000 nM.
`c1nc2ccc(Cn3nnc4ncc(-c5cnn(C6CCOCC6)c5)nc43)cn2n1` [Compound 55] was tested, and the IC50 was 100 to 1000 nM.
`O=Cc1cnn2ccc(Cn3nnc4ncc(-c5cnn(CCO)c5)nc43)cc12` [Compound 312, 5-((6-(1-(2-Hydroxyethyl)-1H-pyrazol-4-yl)-1H-[1,2,3]triazolo[4,5-b]pyrazin-1-yl)methyl)pyrazolo[1,5-a]pyridine-3-carbaldehyde] showed an IC50 of 1 to 100 nM.
`Cc1cccc(Nc2ccc3nnn(Cc4ccc5ncccc5c4)c3n2)n1` [Compound 182] showed an IC50 of 1 to 100 nM.
In the case of `COCCOc1ncccc1Nc1cnc2nnn(Cc3ccc4ncccc4c3)c2n1` [Compound 216], the IC50 is reported as 100 to 1000 nM.
Molecule `Clc1ccnc(Nc2cnc3nnn(Cc4ccc5ncccc5c4)c3n2)c1` [Compound 153] has an IC50 of 1 to 100 nM.
`Clc1cncc(Oc2cnc3nnn(Cc4ccc5ncccc5c4)c3n2)c1` [Compound 254] was tested, and the IC50 was 1 to 100 nM.
With `OCCn1cc(-c2ccc3nnn(C4(c5ccc6ncccc6c5)CC4)c3n2)cn1` [Compound 123] the IC50 was 100 to 1000 nM.
`c1cnc2ccc(Cn3nnc4ncc(Nc5ccnc(O[C@@H]6CCOC6)c5)nc43)cc2c1` [Compound 218] showed an IC50 of 1 to 100 nM.
Work on `Cn1cc(-c2ccc3nnn(C4(c5ccc6ncccc6c5)CC4)c3n2)cn1` [Compound 122] yielded an IC50 of 100 to 1000 nM.
For `CN(C)Cc1cnc2ccc(Cn3nnc4ncc(-c5cnn(C)c5)nc43)cn12` [Compound 319], the IC50 was 1 to 100 nM.
`CC(=O)Nc1ccc(-c2ccc3nnn(Cc4c[nH]c5ncccc45)c3n2)cn1` [Compound 115] was tested, and the IC50 was 1 to 100 nM.
`c1cnc2ccc(Cn3nnc4ccc(-c5cnn(C6CCNCC6)c5)nc43)cc2c1` [Compound 94] showed an IC50 of 100 to 1000 nM.
For `N#Cc1ccnc(Nc2cnc3nnn(Cc4ccc5ncccc5c4)c3n2)c1` [Compound 223], the IC50 was 1 to 100 nM.
For `N#Cc1ccc(-c2ccc3nnn(Cc4ccc5ncccc5c4)c3n2)cn1` [Compound 103], the IC50 was 100 to 1000 nM.
Molecule `CC(=O)Nc1cc(-c2cnn(C)c2)nc2c1nnn2Cc1ccc2ncccc2c1` [Compound 261, N-(5-(1-methyl-1H-pyrazol-4-yl)-3-(quinolin-6-ylmethyl)-3H-[1,2,3]triazolo[4,5-b]pyridin-7-yl)acetamide] has an IC50 of 100 to 1000 nM.
